Experimental data reported in patent US12612410B2 (CHILDREN'S HOSPITAL MEDICAL CENTER, priority 2020, dated 2026).

Tests used:
MOLM14 F691L cells = assay: MOLM14 F691L cell viability assay (Cell Titer Glo); type: cell-based
Method in brief: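 MOLM14 cells carrying FLT3 D835Y or F691L were seeded at 1000 cells/well in RPMI-1640 with 20% FBS and dosed at 22 concentrations, 1:2 dilutions from 10 μM. Viability after 48 h by Cell Titer Glo luminescence; 2.3 μM bortezomib as cytotoxic control.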

IRAK4 = target: T1, IRAK4 (Homo sapiens, UniProt Q9NWZ3); assay: Reaction Biology NanoBRET target engagement assay, IRAK4; type: cell-based; conditions: transfected HEK-293 cells
T1 sequence (Q9NWZ3 1-460): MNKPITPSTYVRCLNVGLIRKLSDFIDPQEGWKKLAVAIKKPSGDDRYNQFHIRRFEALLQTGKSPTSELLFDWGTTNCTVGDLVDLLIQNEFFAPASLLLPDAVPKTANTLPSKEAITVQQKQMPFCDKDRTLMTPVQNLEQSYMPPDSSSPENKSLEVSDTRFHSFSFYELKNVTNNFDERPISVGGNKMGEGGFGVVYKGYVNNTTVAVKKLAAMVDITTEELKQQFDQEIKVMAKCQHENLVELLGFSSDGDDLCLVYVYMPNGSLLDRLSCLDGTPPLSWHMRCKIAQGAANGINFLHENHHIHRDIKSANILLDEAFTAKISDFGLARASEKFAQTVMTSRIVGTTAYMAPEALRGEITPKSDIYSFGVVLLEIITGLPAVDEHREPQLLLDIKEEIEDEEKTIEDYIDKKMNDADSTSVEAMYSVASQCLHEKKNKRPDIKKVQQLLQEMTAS
Excerpt: The NanoBRET assay measures kinase engagement in real time in the context of the intact cell. Unlike the previously described biochemical kinase assay methodologies in Examples 26-27, the NanoBRET assay measures the binding and activity characteristics under equilibrium conditions using full-length kinases in the presence of cellular concentrations of ATP in live, uncompromised cells. As such, the assay provides a more relevant assessment of kinase potency and selectivity that would be expected to be observed in the native cellular environment, where potency is often considerably lower than that observed in the isolated biochemical assays (Vasta, J. D. et al., (2018) Cell Chem. Biol. 25, 206-214). The assay uses a Kinase-NanoLuc® fusion vector expressing a kinase protein to which a luciferase tag has been added, a cell-permeant fluorescent NanoBRET™ tracer, a NanoLuc® substrate, and an extracellular NanoLuc® inhibitor. Upon expression of the luciferase-tagged kinase, cells will produce a strong BRET signal only in the presence of the NanoBRET™ tracer. The extracellular NanoLuc® inhibitor ensures that the BRET signal observed emanates only from live cells. Because the BRET signal has tight distance constraints, addition of the test compound will decrease the BRET signal if the compound competes with the NanoBRET™ tracer for binding to the kinase domain. Under the appropriate tracer conditions established by the manufacturer, quantitative intracellular affinity and relative potency can then be determined using Mass Action model equations.
HEK-293 cells were purchased from ATCC. FuGENEHD Transfection Reagent, Kinase-NanoLucfusion plasmids, Transfection Carrier DNA, NanoBRETTracers and dilution buffer, NanoBRETNano-Glo Substrate, Extracellular NanoLucInhibitor were obtained from Promega.
Assays were conducted following Promega assay protocol with some modifications. HEK-293 Cells were transiently transfected with Kinase-NanoLucFusion Vector DNA by FuGENEHD Transfection Reagent. Testing compounds were delivered into 384 well assay plate by Echo 550 (Labcytelnc, Sunnyvale, CA). Transfected cells were harvested and mixed with NanoBRETTracer Reagent and dispensed into 384 well plates and incubated at 37° C. in 5% CO2 cell culture incubator for 1 hour. The NanoBRETNano-Glo Substrate plus Extracellular NanoLucInhibitor Solution were added into the wells of the assay plate and incubated for 2-3 minutes at room temperature. The donor emission wavelength (460 nm) and acceptor emission wavelength (600 nm) were measured in the EnVisionplate reader. The BRET Ratios were calculated. BRET Ratio=[(Acceptor sample÷Donor sample)−(Acceptor no-tracer control÷Donor no-tracer control)]. The IC50 values of compounds were calculated with Prism GraphPad program.
NanoBRET™ Target Engagement Assay Protocol
1. Transient Transfection of HEK-293 Cells NanoLuc® Fusion Vector DNA
• 1). Cultivate HEK-293 cells (70-80% confluence) appropriately prior to assay. Trypsinize and collect HEK-293 cells. • 2). Prepare lipid: DNA complexes as follows: • a. Prepare a […] solution of DNA in Opti-MEM without serum that consists of the following ratios of carrier DNA and DNA encoding NanoLuc® fusion. 9.0 µg/mL of Transfection Carrier DNA, […] of NanoLuc fusion vector DNA and 1 mL of Opti-MEM without phenol red. Mix thoroughly. • b. Add 30 l of FuGENE HD Transfection Reagent into each milliliter of DNA mixture to form lipid: DNA complex. • c. Mix by inversion 10 times. • d. Incubate at ambient temperature for 20 minutes to allow complexes to form. • 3). In a sterile, conical tube, mix 1 part of lipid: DNA complex with 20 parts of HEK-293 cells in suspension. Mix gently by inversion 5 times. • 4). Dispense cells+lipid: DNA complex into a sterile tissue culture dish and incubate for 22-24 hours. 2. Addition of Test Compounds (dry plate shooting)
Each test compound is delivered from the compound source plate to the wells of 384-well white NBS plate by Echo 550.
3. […]

Structure (SMILES)	IC50 (MOLM14 F691L cells; Homo sapiens, MOLM-14, 48 h) [µM]	IC50 (IRAK4) [µM]	IC50 (MOLM14 F691L cells; 48 hours) [µM]
CC(O)(c1cn2c(-c3cccc(N[C@H]4CNC[C@@H]4F)n3)cnc2cn1)C(F)(F)F (single isomer, unassigned) [Compound 77]	0.376	< 0.0005	
CC(O)(c1cn2c(-c3cccc(N[C@H]4CNC[C@@H]4F)n3)cnc2cn1)C(F)(F)F (single isomer, unassigned) [Compound 78]			0.299
CC(O)(c1cn2c(-c3cccc(N[C@H]4CNCC[C@@H]4F)n3)cnc2cn1)C(F)(F)F (single isomer, unassigned) [Compound 80]	0.196	< 0.0005	
CC(O)(c1cn2c(-c3cccc(N[C@@H]4CCCNC4)n3)cnc2cn1)C(F)(F)F (single isomer, unassigned) [Compound 81]	0.211	< 0.0005	
CC(O)(c1cn2c(-c3cccc(N[C@H]4CNCC[C@@H]4F)n3)cnc2cn1)C(F)(F)F (single isomer, unassigned) [Compound 82]		< 0.0005	0.157
CC1(c2cn3c(-c4cccc(N[C@H]5CNC[C@@H]5F)n4)cnc3cn2)CC1 [Compound 1, N-((3S,4S)-4-fluoropyrrolidin-3-yl)-6-(6-(1-methylcyclopropyl)imidazo[1,2-a]pyrazin-3-yl)pyridin-2-amine]	0.169	< 0.0005	
CC1(c2cn3c(-c4cccc(N[C@@H]5CCNC5)n4)cnc3cn2)CC1 [Compound 3, (R)-6-(6-(1-methylcyclopropyl)imidazo[1,2-a]pyrazin-3-yl)-N-(pyrrolidin-3-yl)pyridin-2-amine]		< 0.0005	
CC1(c2cn3c(-c4cccc(N[C@H]5CNCC56CC6)n4)cnc3cn2)CC1 [Compound 5, (R)-N-(6-(6-(1-methylcyclopropyl)imidazo[1,2-a]pyrazin-3-yl)pyridin-2-yl)-5-azaspiro[2.4]heptan-7-amine]	0.034	< 0.0005	
FC(F)(F)C1(c2cn3c(-c4cccc(N[C@@H]5CCNC5)n4)cnc3cn2)CC1 [Compound 10, (R)-N-(pyrrolidin-3-yl)-6-(6-(1-(trifluoromethyl)cyclopropyl)imidazo[1,2-a]pyrazin-3-yl)pyridin-2-amine]	0.168		
FC(F)c1cn2c(-c3cccc(N[C@H]4CNC[C@@H]4F)n3)cnc2cn1 [Compound 16, 6-(6-(difluoromethyl)imidazo[1,2-a]pyrazin-3-yl)-N-((3S,4S)-4-fluoropyrrolidin-3-yl)pyridin-2-amine]	0.226	< 0.0005	
FC(F)c1cn2c(-c3cccc(N[C@H]4CNCC[C@@H]4F)n3)cnc2cn1 [Compound 25, 6-(6-(difluoromethyl)imidazo[1,2-a]pyrazin-3-yl)-N-((3S,4S)-4-fluoropiperidin-3-yl)pyridin-2-amine]	0.074	< 0.0005	
CC(C)(O)c1cn2c(-c3cccc(N[C@@H]4CCCNC4)n3)cnc2cn1 [Compound 30, (R)-2-(3-(6-(piperidin-3-ylamino)pyridin-2-yl)imidazo[1,2-a]pyrazin-6-yl)propan-2-ol]	0.381		
CC(C)(O)c1cn2c(-c3cccc(N[C@H]4CNCC[C@@H]4F)n3)cnc2cn1 [Compound 31, 2-(3-(6-(((3S,4S)-4-fluoropiperidin-3-yl)amino)pyridin-2-yl)imidazo[1,2-a]pyrazin-6-yl)propan-2-ol]	0.249	< 0.0005	
CC(C)(O)c1cn2c(-c3nc(N[C@H]4CNC[C@@H]4F)c(F)cc3F)cnc2cn1 [Compound 33, 2-(3-(3,5-difluoro-6-(((3S,4S)-4-fluoropyrrolidin-3-yl)amino)pyridin-2-yl)imidazo[1,2-a]pyrazin-6-yl)propan-2-ol]	2.66	< 0.0005	
CC(C)(O)c1cn2c(-c3nc(N[C@@H]4CCCNC4)c(F)cc3F)cnc2cn1 [Compound 34, (R)-2-(3-(3,5-difluoro-6-(piperidin-3-ylamino)pyridin-2-yl)imidazo[1,2-a]pyrazin-6-yl)propan-2-ol]	1.33	< 0.0005	
CC(C)(O)c1cn2c(-c3nc(N[C@H]4CNCC[C@@H]4F)c(F)cc3F)cnc2cn1 [Compound 35, 2-(3-(3,5-difluoro-6-(((3S,4S)-4-fluoropiperidin-3-yl)amino)pyridin-2-yl)imidazo[1,2-a]pyrazin-6-yl)propan-2-ol]	0.841	< 0.0005	
FC(F)(F)COc1cn2c(-c3cccc(N[C@@H]4CCNC4)n3)cnc2cn1 [Compound 38, (R)-N-(pyrrolidin-3-yl)-6-(6-(2,2,2-trifluoroethoxy)imidazo[1,2-a]pyrazin-3-yl)pyridin-2-amine]		< 0.0005	
Cn1cc(-c2cn3c(-c4cccc(N[C@@H]5CCCNC5)n4)cnc3cn2)cn1 [Compound 43, (R)-6-(6-(1-methyl-1H-pyrazol-4-yl)imidazo[1,2-a]pyrazin-3-yl)-N-(piperidin-3-yl)pyridin-2-amine]	0.079	0.084	
F[C@H]1CNC[C@@H]1Nc1cccc(-c2cnc3cnc(C4CC4)cn23)n1 [Compound 50, 6-(6-cyclopropylimidazo[1,2-a]pyrazin-3-yl)-N-((3S,4S)-4-fluoropyrrolidin-3-yl)pyridin-2-amine]	0.192	0.001	
F[C@H]1CCNC[C@@H]1Nc1cccc(-c2cnc3cnc(C4CC4)cn23)n1 [Compound 51, 6-(6-cyclopropylimidazo[1,2-a]pyrazin-3-yl)-N-((3S,4S)-4-fluoropiperidin-3-yl)pyridin-2-amine]	0.053	0.0006	
Cn1cc(-c2cn3c(-c4cccc(N[C@H]5CNC[C@@H]5F)n4)cnc3cn2)cn1 [Compound 52, N-((3S,4S)-4-fluoropyrrolidin-3-yl)-6-(6-(1-methyl-1H-pyrazol-4-yl)imidazo[1,2-a]pyrazin-3-yl)pyridin-2-amine]	0.106		
FC(F)COc1cn2c(-c3cccc(N[C@H]4CNC[C@@H]4F)n3)cnc2cn1 [Compound 58, 6-(6-(2,2-difluoroethoxy)imidazo[1,2-a]pyrazin-3-yl)-N-((3S,4S)-4-fluoropyrrolidin-3-yl)pyridin-2-amine]		< 0.0005	
O=S1(=O)CCCN1c1cn2c(-c3cccc(N[C@H]4CNCC[C@@H]4F)n3)cnc2cn1 [Compound 97, 2-(3-(6-(((3S,4S)-4-fluoropiperidin-3-yl)amino)pyridin-2-yl)imidazo[1,2-a]pyrazin-6-yl)isothiazolidine 1,1-dioxide]	0.026	0.0009	
O=C1NCCN1c1cn2c(-c3cccc(N[C@H]4CNCC[C@@H]4F)n3)cnc2cn1 [Compound 118, 1-(3-(6-(((3S,4S)-4-fluoropiperidin-3-yl)amino)pyridin-2-yl)imidazo[1,2-a]pyrazin-6-yl)imidazolidin-2-one]	0.037		
